Experimental data: patent US8597645B2, “Cancer treatment with endothelin receptor antagonists” (New York University, priority 1999, dated 2013)
Where two headings read alike, the source gives them in different places. Where a SMILES comes first, the peptide text is derived from it.

Columns and labels:
[1] = tested on: E-cadherin protein levels in melanocytes (FM2030) and melanoma cells (SKMEL28); assay: Down-regulation of E-cadherin by ET-1, immunoblot analysis of lysates; format: cell-based, human; conditions: for blocking of E-cadherin down-regulation by ET-1: antagonist 100 nM added one hour before 10 nM ET-1, 40 hours
Description: A375, WM-266-4 and WM-1 15 melanoma cells were purchased from the ATCC. Culture conditions were as described in I. M. Shih, et al., Am. J. Pathol., 145:837-45 (1994). Two weeks prior to ET-stimulation, water soluble 12,13-phorbol dibutyrate was substituted for phorbol 12-myristate, 13-acetate in melanocyte medium. ET stimulations of melanocytes were carried out in phorbol-free medium. Cell pellets were incubated for 15 minutes in 6 pellet volumes of RIPA buffer (1% NP4O, 0.5% deoxycholic acid, 10 mM Tris pH 8.3, 150 mM NaCl, 50 mM NaF, 0.2 mM sodium vanadate, 1× protease inhibitors-Boehringer complete). After centrifugation, lysates were quantitated using protein assay reagent (Biorad). 2.5 ug of protein per sample were subjected to SDS-PAGE unless samples were prepared from A375, WM-266-4 or WM-1 15 cells in which case 100 ug protein per sample was used. BQ123 and BQ788 at 100 nM were added to cells one hour before ET-1 addition. Antibodies: anti-E-cadherin (Transduction labs), anti-mouse IgG-HRP (Santa-Cruz). ECL detection system (Amersham). ET-1, ET-3, BQ123, BQ788 (Peninsula labs).
Human neonatal melanocytes (FM2030) and human melanoma cells (SKMEL28) were stimulated with 10 nM ET-1 over a 40 hour time course and protein lysates were examined for E-cadherin protein levels by immunoblot analysis (FIG. 1A). […] E-cadherin protein levels returned to baseline by 72 hours. A delayed and prolonged response to ET-1 has also been reported in other cell types. R. Marsault, et al., Biochem. Biophys. Res. Commun., 179:1408-3 (1991). […] In addition to E-cadherin, expression of the adhesion molecules ICAM 1, CD44 and N-cadherin is altered during melanoma development. M. Y. Hsu, et al., J. Investig. Dermatol. Symp. Proc., 1:188-94 (1996); S. Vermeulen, et al., Pathol. Res. Pract, 192:694-707 (1996).
There are two well characterized ET-1 receptors, an A subtype (ETA) and a B subtype (ETB). A. G. Baynash, et al., Cell, 79:1277 85 (1994). Both subtypes are expressed by melanocytes while most melanoma cells express only ETB. ET-1 binds with equal affinity to both receptor subtypes. G. Imokawa, et al., Biochem. J., 314:305-12 (1996). To determine which subtype mediated the observed response, the assay was repeated in the presence of a selective ETA antagonist (BQ123) and a selective ETB antagonist (BQ788).

[2] = tested on: β-catenin and p120CTN protein levels in melanocytes and melanoma cells; assay: Down-regulation of β-catenin and p120CTN by ET-1, immunoblot of crude membrane fractions; format: cell-based, human
Description: To analyze membrane-associated catenin proteins, crude membrane fractions were prepared as follows: cell pellets were resuspended in 6 pellet volumes of buffer A (10 mM HEPES pH 7.5, 1.5 mM MgCl2, 10 mM KCl, 10 mM NaF, 0.2 mM sodium vanadate, 1× protease inhibitors-Boehringer complete) and allowed to swell for 10 min. Cell membranes were disrupted by vortexing for 10 s and membranes pelleted by centrifugation for 10 s. Supernatants containing cytoplasmic proteins were discarded. Membrane pellets were solubilized in RIPA buffer as described above and snap frozen on dry ice. 0.5 ug and 2.5 ug of protein lystes were used to examine levels of β-catenin and p120^CTN proteins respectively. Antibodies: anti-β-catenin and anti-p120^CTN (Transduction labs).
The catenins are cytoplasmic proteins that bind E-cadherin and are critical for E-cadherin function in cellular adhesion. J. M. Daniel, et al., Bloessays, 19: 883-91 (1997). Considering the importance of the catenins in E-cadherin function, the effect of ET-1 stimulation upon the levels of these proteins was studied. In both melanocytes and melanoma cells, ET-1 stimulation decreased β-catenin protein levels and increased its electrophoretic mobility (FIG. 2A). The kinetics of this response correlated well with those of E-cadherin down-regulation. BQ788, a selective ETB antagonist, blocked ET-1 mediated down-regulation of β-catenin (FIG. 2B).

ETA receptors = conditions: cited from earlier work; for IC50: read-out: IC50, inhibition of 125I-labeled ET-1 binding
ETB receptors = conditions: cited from earlier work; for inhibition of 125I-labeled ET-1 binding: non cardiovascular tissues: kidney, adrenal gland, cerebellum
[3] = tested on: caspase-8, caspases-3 and 7 in FM2030 and SKMEL28 cells; assay: Caspase activation by ET-1, immunoblot of crude cytoplasmic extracts; format: cell-based, human
Description: (§1) All caspase inhibitors contained a 16 amino-acid signal peptide derived from Kaposi Fibroblast Growth Factor to confer cell permeability (Calbiochem). Inhibitors were added to cells 34 hours post ET-1 stimulation and cells harvested at 40 hours. Crude cytoplasmic fractions were prepared as described for FIG. 2, except that supernatants containing cytoplasmic proteins were transferred to new tubes, supplemented with 0.11 volumes of buffer B (0.3M HEPES pH 7.9, 1.4M KCl, 0.03M MgCl2) and clarified by centrifugation. 10 ug of protein per sample was analyzed for caspase activation. Antibodies: Anti-caspase-8 antibody (UBI), Anti-caspase-3 and 7 (Transduction labs). Super Signal West Femto Maximum Sensitivity Substrate (PIERCE) was used for chemiluminescent detection of caspase proteins. Membranes were initially developed in a 1:5 dilution of the reagent made in H2O. If necessary, blots were briefly rinsed in TBS (10 mM Tris pH 8.0, 150 mM NaCl) and redeveloped with undiluted reagent for visualization of small fragments.
To determine whether caspase activation played a role in down-regulation of E-cadherin by ET-1, the assay was repeated in the presence of cell permeable inhibitors of a variety of different caspases (FIG. 3A). Strikingly, inhibitors containing the sequences IETD (inhibition of caspase-8) (SEQ ID NO:1) and DEVD (inhibition of caspases-3, 7, 8) (SEQ ID NO:2) were able to block down-regulation of E-cadherin by ET-1. The ‘DEVD’ (SEQ ID NO:2) inhibitor required a 10 fold higher concentration than the ‘IETD’ (SEQ ID NO:1) inhibitor in order to be effective (FIG. 3A. lower panel). Inhibitors specific for caspases 1, 4, 5, 6, 9 and 10 were without effect. […] Timepoints of maximal E-cadherin down-regulation coincided with the appearance of catalytically active caspase-8 subfragments (FIG. 3C, lower panel). Treatment of cells with a cell permeable inhibitor of caspase-8 prevented its proteolytic processing providing further evidence that caspase-8 activation is required for down-regulation of E-cadherin, β-catenin and p120^CTN by ET-1.

isolated vascular strips = conditions: read-out: EC50 as contractile agent; cited from earlier work
[4] = tested on: melanocytes and melanoma cells; assay: Immunofluorescence: subcellular localization of E-cadherin and β-catenin after ET-1; format: cell-based, human; conditions: 10 nM ET-1, 96 hours
Description: Cells were seeded onto collagen coated glass chamber slides in medium supplemented with 10 nM ET-1. At 48 hours, medium was aspirated and replaced with fresh ET-1 supplemented medium. At 96 hours, cells were fixed for 10 minutes in 3.7% formaldehyde/1 mM CaCl2/PBS, permeabilized for 10 minutes in 0.2% Triton X-100/PBS and blocked in 1% BSA/PBS for 10 minutes. Staining with E-cadherin and β-catenin antibodies diluted 1:50 in blocking buffer was performed for 45 minutes followed by a 30 minute incubation with goat-anti-mouse IgG-Cy3 (Jackson Immunoresearch labs) diluted 1:200 in blocking buffer. Cells were washed with PBS in between permeabilization and fixation steps and after antibody incubations.

[5] = tested on: caspases (E-cadherin, β-catenin, p120CTN read-out) in SKMEL28 and FM2030 cells; assay: Cell permeable caspase inhibitors on down-regulation of E-cadherin and catenins by ET-1; format: cell-based, human; conditions: inhibitors added 34 hours post ET-1, harvested at 40 hours
Description: as §1
To determine whether caspase activation played a role in down-regulation of E-cadherin by ET-1, the assay was repeated in the presence of cell permeable inhibitors of a variety of different caspases (FIG. 3A). […]

[6] = ET-1 stimulation, melanocytes and melanoma cells

CC(C)C[C@@H]1NC(=O)[C@@H](C(C)C)NC(=O)[C@@H]2CCCN2C(=O)[C@@H](CC(=O)O)NC(=O)[C@@H](Cc2c[nH]c3ccccc23)NC1=O [BQ123, cyclo(D-Asp-Pro-D-Val-Leu-D-Trp)] (HELM PEPTIDE1{L.[dW].[dD].P.[dV]}$PEPTIDE1,PEPTIDE1,1:R1-5:R2$$$V2.0)
blocking of E-cadherin down-regulation by ET-1 [1]: not

CCCC[C@@H](NC(=O)[C@@H](Cc1cn(C(=O)OC)c2ccccc12)NC(=O)[C@H](CC(C)(C)C)NC(=O)N1[C@H](C)CCC[C@@H]1C)C(=O)O [BQ788]
blocking of E-cadherin down-regulation by ET-1 [1]: blocked | blocking of ET-1 mediated down-regulation of β-catenin ([2]; ETB antagonist with ET-1): blocked

ET-1: 21 amino-acid peptide secreted by keratinocytes; binds ETA and ETB
potency of inhibition of 125I-labeled ET-1 binding relative to ET-3 (ETA receptors; cardiovascular tissues): forty to seven hundred times more potently | inhibition of 125I-labeled ET-1 binding (ETB receptors): inhibited to the same extent | E-cadherin protein level after ET-1 stimulation ([1]; 10 nM ET-1, by 40 hours, FM2030 and SKMEL28): marked decrease | time at which E-cadherin protein levels returned to baseline ([1]; 10 nM ET-1, FM2030 and SKMEL28): ≤ 72 h | dose response of E-cadherin down-regulation ([1]; 0.5, 1.0, 10 nM ET-1, 40 hours, melanocytes and melanoma cells): dose responsive | protein levels of adhesion molecules ICAM 1, CD44 and N-cadherin ([1]; immunoblot of lysates after ET-1): no effect | E-cadherin mRNA levels ([1]; northern blot analysis): no ET-1 dependent decrease | down-regulation of E-cadherin in additional cell lines ([1]; one additional melanocyte line (CL-NHEM) and 4 additional melanoma lines): down-regulation of E-cadherin was observed in all lines except in A375 and WM 115 | p120CTN protein level and electrophoretic mobility ([2]; ET-1 stimulation): down-regulated and increased the electrophoretic mobility | β-catenin electrophoretic mobility [2, 6]: increased | β-catenin protein levels [2, 6]: decreased | β-catenin mRNA levels ([2]; northern blot analysis): failed to reveal an ET-1 dependent decrease | activation of distal caspases (caspases-3 and 7) ([3]; SKMEL28 and FM2030 cells): failure of ET-1 to activate distal caspases | duration of ET-1 dependent proteolytic processing of caspase-8 ([3]; after ET-1 stimulation): 46 h | time at which ET-1 dependent proteolytic processing of caspase-8 was first detectable ([3]; after ET-1 stimulation): approximately 36 hours | induction of apoptosis ([3]; melanocytes and melanoma cells): failure to induce apoptosis | EC50 (isolated vascular strips): 0.4 nM | E-cadherin staining in melanocytes [4]: loss of concentration of E-cadherin staining at points of cell:cell contact | E-cadherin staining in melanoma cells [4]: markedly decreased intensity of membranous staining | β-catenin staining in melanocytes [4]: loss of concentration of β-catenin at lateral cell borders and at points of cell: cell contact | β-catenin staining in melanoma cells [4]: loss of most of the membranous staining | melanocyte morphology ([4]; bright field micrographs): large nuclei with prominent nucleoli, abundant cytoplasm, polygonal morphology

ET-3: ET isopeptide, a selective ETB agonist
inhibition of 125I-labeled ET-1 binding (ETB receptors): inhibited to the same extent | down-regulation of E-cadherin by ET-3 ([1]; 10 nM ET-3, 40 hours): potent down-regulator

IETD
blocking of down-regulation of E-cadherin by ET-1 [5]: able to block

cyclo(D-Glu-L-Ala-allo-D-Ile-L-Leu-D-Trp) [BE-18257B]
IC50 (ETA receptors; aortic smooth muscle): 1400 nM | IC50 (ETA receptors; cultured aortic smooth muscle cells): 500 nM | IC50 (ETA receptors; ventricle membranes): 800 nM | IC50 (ETB receptors; tissues in which ETB receptors predominate, read-out: concentration up to which binding is not inhibited): > 100000 nM
